Assay results as given in PubChem BioAssay (NCI).
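Five concentrations, 48 hours, 96-well plates. The concentration for 50% growth inhibition is given as GI50. TGI marks complete inhibition of growth.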

Legend:
Assay in all cases: NCI-60 cell line screen, 48 h
[1] = system: TK-10 renal
[2] = system: COLO 205 colon
[3] = system: SF-539 CNS
[4] = system: NCI-H460 lung
[5] = system: LOX IMVI melanoma
[6] = system: SF-268 CNS
[7] = system: CAKI-1 renal
[8] = system: NCI-H226 lung
[9] = system: MDA-N
[10] = system: A498 renal
[11] = system: SK-MEL-2 melanoma
[12] = system: HCC-2998 colon
[13] = system: KM12 colon
[14] = system: T-47D breast
[15] = system: NCI-H23 lung
[16] = system: OVCAR-4 ovarian
[17] = system: SF-295 CNS
[18] = system: MCF7 breast
[19] = system: ACHN renal
[20] = system: EKVX NSCLC
[21] = system: M14 melanoma
[22] = system: U251 CNS
[23] = system: MDA-MB-231 breast
[24] = system: NCI-H522 lung
[25] = system: RPMI-8226 leukemia
[26] = system: A549 NSCLC
[27] = system: SK-MEL-5 melanoma
[28] = system: SN12C renal
[29] = system: NCI/ADR-RES ovarian
[30] = system: MALME-3M melanoma
[31] = system: IGROV1 ovarian
[32] = system: SNB-75 CNS
[33] = system: OVCAR-3 ovarian
[34] = system: DU-145 prostate
[35] = system: MDA-MB-435
[36] = system: SW-620 colon
[37] = system: HT29 colon
[38] = system: 786-0 renal
[39] = system: K-562 leukemia
[40] = system: CCRF-CEM leukemia
[41] = system: SK-OV-3 ovarian
[42] = system: UACC-62 melanoma
[43] = system: MOLT-4 leukemia
[44] = system: UO-31 renal
[45] = system: UACC-257 melanoma
[46] = system: HS 578T breast
[47] = system: HCT-15 colon
[48] = system: OVCAR-8 ovarian
[49] = system: OVCAR-5 ovarian
[50] = system: PC-3 prostate
[51] = system: HOP-62 NSCLC
[52] = system: RXF 393 renal
[53] = system: SNB-19 CNS
[54] = system: HL-60(TB) leukemia
[55] = system: HOP-92 NSCLC
[56] = system: SK-MEL-28 melanoma
[57] = system: SR leukemia
[58] = system: HCT-116 colon
[59] = system: BT-549 breast

O=c1[nH]c(=O)n(C2OC(CO)C(O)C2O)c2c1CCCC2 (stereo not given)
TGI [1]: > 100 µM
TGI [2]: > 100 µM
TGI [3]: > 100 µM
TGI [4]: > 100 µM
TGI [5]: > 100 µM
TGI [6]: > 100 µM
TGI [7]: > 100 µM
TGI [8]: > 100 µM
TGI [9]: > 100 µM
TGI [10]: > 100 µM
TGI [11]: > 100 µM
TGI [12]: > 100 µM
TGI [13]: > 100 µM
TGI [14]: > 100 µM
TGI [15]: > 100 µM
TGI [16]: > 100 µM
TGI [17]: > 100 µM
TGI [18]: > 100 µM
TGI [19]: > 100 µM
TGI [20]: > 100 µM
TGI [21]: > 100 µM
TGI [22]: > 100 µM
TGI [23]: > 100 µM
TGI [24]: > 100 µM
TGI [25]: > 100 µM
TGI [26]: > 100 µM
TGI [27]: > 100 µM
TGI [28]: > 100 µM
TGI [29]: > 100 µM
TGI [30]: > 100 µM
TGI [31]: > 100 µM
TGI [32]: > 100 µM
TGI [33]: > 100 µM
TGI [34]: > 100 µM
TGI [35]: > 100 µM
TGI [36]: > 100 µM
TGI [37]: > 100 µM
TGI [38]: > 100 µM
TGI [39]: > 100 µM
TGI [40]: > 100 µM
TGI [41]: > 100 µM
TGI [42]: > 100 µM
TGI [43]: > 100 µM
TGI [44]: > 100 µM
TGI [45]: > 100 µM
TGI [46]: > 100 µM
TGI [47]: > 100 µM
TGI [48]: > 100 µM
TGI [49]: > 100 µM
TGI [50]: > 100 µM
TGI [51]: > 100 µM
TGI [52]: > 100 µM
TGI [53]: > 100 µM
TGI [54]: > 100 µM
TGI [55]: > 100 µM
TGI [56]: > 100 µM
TGI [57]: > 100 µM
TGI [58]: > 100 µM

Cc1cc(CNC(=O)OCc2ccccc2)c(C)c2c1Oc1ccccc1O2
TGI [1]: > 100 µM
TGI [2]: > 100 µM
GI50 [3]: 19.5 µM
TGI [3]: 47.9 µM
TGI [4]: > 100 µM
TGI [5]: > 100 µM
TGI [6]: > 74.3 µM
TGI [59]: > 100 µM
TGI [7]: > 87.5 µM
TGI [8]: > 93.6 µM
TGI [10]: 74.7 µM
TGI [11]: > 27.3 µM
TGI [12]: > 100 µM
TGI [13]: > 100 µM
TGI [14]: > 100 µM
TGI [15]: > 100 µM
TGI [16]: 72.3 µM
TGI [17]: > 100 µM
TGI [18]: > 100 µM
TGI [19]: > 100 µM
TGI [20]: > 100 µM
TGI [21]: > 100 µM
TGI [22]: > 67.3 µM
TGI [23]: > 60.5 µM
TGI [24]: 90.7 µM
TGI [25]: > 100 µM
TGI [26]: 97.7 µM
TGI [27]: > 100 µM
TGI [28]: > 91.8 µM
TGI [29]: > 71.4 µM
TGI [30]: > 100 µM
TGI [31]: > 100 µM
TGI [32]: 36.3 µM
TGI [33]: > 100 µM
TGI [34]: > 100 µM
TGI [35]: > 100 µM
TGI [36]: > 100 µM
TGI [37]: > 68.8 µM
TGI [38]: 35.6 µM
TGI [39]: > 100 µM
TGI [40]: > 100 µM
TGI [41]: 51.3 µM
TGI [42]: > 100 µM
TGI [43]: > 100 µM
TGI [44]: > 100 µM
TGI [45]: > 100 µM
TGI [46]: 53.6 µM
TGI [47]: > 100 µM
TGI [48]: 58.5 µM
TGI [49]: > 100 µM
TGI [50]: > 100 µM
TGI [51]: 53.3 µM
TGI [52]: 32.6 µM
TGI [53]: > 92.9 µM
GI50 [54]: > 100 µM
TGI [54]: > 100 µM
TGI [55]: 26.1 µM
TGI [56]: > 100 µM
TGI [57]: > 100 µM
TGI [58]: > 100 µM

COc1cc2cc(C(=O)N3C[C@@H](CCl)c4c3cc(N)c3ccccc43)[nH]c2c(OC)c1OC
TGI [6]: > 100 µM
TGI [7]: 0.0364 µM
TGI [9]: 0.00153 µM
TGI [13]: 0.0257 µM
TGI [17]: > 100 µM
TGI [18]: 22 µM
TGI [22]: > 100 µM
TGI [25]: > 100 µM
TGI [26]: > 100 µM
TGI [31]: 0.467 µM
TGI [36]: > 100 µM
TGI [37]: 1.1 µM
TGI [39]: > 100 µM
TGI [40]: > 100 µM
TGI [41]: 1.45 µM
TGI [43]: 1.64 µM
TGI [46]: > 100 µM
TGI [47]: 1.11 µM
TGI [50]: 0.108 µM
TGI [54]: > 100 µM
TGI [55]: > 100 µM
TGI [56]: > 100 µM
TGI [57]: > 100 µM
TGI [58]: 0.136 µM

O=C(Nc1cccc(C(F)(F)F)c1)O/N=C(/Cl)CCl
TGI [1]: > 100 µM
TGI [2]: > 100 µM
TGI [3]: > 100 µM
TGI [4]: > 100 µM
TGI [5]: 69.9 µM
TGI [6]: > 100 µM
TGI [7]: > 100 µM
TGI [9]: > 100 µM
TGI [10]: > 100 µM
TGI [11]: > 100 µM
TGI [12]: > 100 µM
TGI [13]: > 100 µM
TGI [14]: > 100 µM
TGI [15]: > 100 µM
TGI [16]: > 100 µM
TGI [17]: > 100 µM
TGI [18]: > 100 µM
TGI [19]: > 100 µM
TGI [20]: > 100 µM
TGI [21]: > 100 µM
TGI [22]: > 100 µM
TGI [23]: 39 µM
TGI [25]: 75.1 µM
TGI [26]: > 100 µM
TGI [27]: > 100 µM
TGI [28]: > 100 µM
TGI [29]: > 100 µM
TGI [30]: > 100 µM
TGI [31]: > 100 µM
TGI [32]: > 100 µM
TGI [33]: > 100 µM
TGI [34]: > 100 µM
TGI [36]: > 100 µM
TGI [37]: > 100 µM
TGI [38]: > 100 µM
TGI [39]: > 100 µM
TGI [40]: > 100 µM
TGI [41]: > 100 µM
TGI [43]: 79.6 µM
TGI [44]: > 100 µM
TGI [45]: > 100 µM
TGI [46]: > 100 µM
TGI [47]: > 100 µM
TGI [48]: > 100 µM
TGI [49]: 45.3 µM
TGI [50]: > 100 µM
TGI [51]: > 100 µM
TGI [53]: > 100 µM
TGI [54]: 38.7 µM
TGI [55]: 59.2 µM
TGI [56]: > 100 µM
TGI [57]: 62.8 µM
TGI [58]: > 100 µM
